Assay results: ChEMBL document CHEMBL1201862, “PubChem BioAssay data set” (2004)
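Test compounds were applied to cells in 96-well plates for 48 hours at 5 doses. GI50 is the concentration that inhibits growth by half.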 Calls of active or inactive are those of the source. Cut-off read from the data, not from the text of the source: active = GI50 up to about 1.1 µM and inactive = higher.

What was measured:
Test in all cases: NCI tumour cell line growth inhibition, 48 h
[1] = test system: SR
[2] = test system: EKVX
[3] = test system: SF-539
[4] = test system: OVCAR-3
[5] = test system: HCC 2998
[6] = test system: SF-268
[7] = test system: SK-MEL-28
[8] = test system: UO-31
[9] = test system: UACC-62
[10] = test system: K562
[11] = test system: XF498
[12] = test system: OVCAR-8
[13] = test system: COLO 205
[14] = test system: LXFL 529
[15] = test system: SF-295
[16] = test system: SK-MEL-5
[17] = test system: A498
[18] = test system: RPMI-8226
[19] = test system: KM-20L2
[20] = test system: 786-0
[21] = test system: SNB-75
[22] = test system: M19-MEL
[23] = test system: OVCAR-4
[24] = test system: IGROV-1
[25] = test system: RXF 631
[26] = test system: SK-MEL-2
[27] = test system: KM12
[28] = test system: UACC-257
[29] = test system: HCT-116
[30] = test system: SNB-19
[31] = test system: LOX IMVI
[32] = test system: TK-10
[33] = test system: HOP-18
[34] = test system: U-251
[35] = test system: SNB-78
[36] = test system: ACHN
[37] = test system: Malme-3M
[38] = test system: HOP-62
[39] = test system: NCI-H460
[40] = test system: NCI-H226
[41] = test system: HCT-15
[42] = test system: DLD-1
[43] = test system: CAKI-1
[44] = test system: SN12C
[45] = test system: M14
[46] = test system: SW-620
[47] = test system: HOP-92
[48] = test system: OVCAR-5
[49] = test system: DMS-114
[50] = test system: NCI-H23
[51] = test system: HT-29
[52] = test system: NCI-H522
[53] = test system: CCRF-CEM
[54] = test system: DMS-273
[55] = test system: SK-OV-3
[56] = test system: A549
[57] = test system: HL-60
[58] = test system: RXF 393
[59] = test system: MOLT-4

Question: How did the GI50 [1] turn out when `CCOC(=O)/C(=C/c1ccccn1)C(=O)c1ccccc1` was run?
Answer: 3.32 µM (inactive)

Question: And the GI50 [2]?
Answer: 19.1 µM (inactive)

Question: And the GI50 [3]?
Answer: 16.7 µM (inactive)

Question: And the GI50 [4]?
Answer: 14.1 µM (inactive)

Question: And the GI50 [5]?
Answer: 17.3 µM (inactive)

Question: And the GI50 [6]?
Answer: 19.1 µM (inactive)

Question: What about the GI50 [7] of the same compound?
Answer: 11.8 µM (inactive)

Question: And the GI50 [8]?
Answer: 16.3 µM (inactive)

Question: What about the GI50 [9] of the same compound?
Answer: 9.59 µM (inactive)

Question: And the GI50 [10]?
Answer: 5.19 µM (inactive)

Question: And the GI50 [11]?
Answer: 16.1 µM (inactive)

Question: What about the GI50 [12] of the same compound?
Answer: 14.5 µM (inactive)

Question: What about the GI50 [13] of the same compound?
Answer: 14.2 µM (inactive)

Question: And the GI50 [14]?
Answer: 11.1 µM (inactive)

Question: What about the GI50 [15] of the same compound?
Answer: 13 µM (inactive)

Question: And the GI50 [16]?
Answer: 14.3 µM (inactive)

Question: What about the GI50 [17] of the same compound?
Answer: 18.9 µM (inactive)

Question: What about the GI50 [18] of the same compound?
Answer: 3.42 µM (inactive)

Question: What about the GI50 [19] of the same compound?
Answer: 15.5 µM (inactive)

Question: And the GI50 [20]?
Answer: 12.8 µM (inactive)

Question: And the GI50 [21]?
Answer: 13.8 µM (inactive)

Question: What about the GI50 [22] of the same compound?
Answer: 13.5 µM (inactive)

Question: And the GI50 [23]?
Answer: 16.1 µM (inactive)

Question: What about the GI50 [24] of the same compound?
Answer: 16.3 µM (inactive)

Question: What about the GI50 [25] of the same compound?
Answer: 13.6 µM (inactive)

Question: What about the GI50 [26] of the same compound?
Answer: 13.9 µM (inactive)

Question: What about the GI50 [27] of the same compound?
Answer: 11.9 µM (inactive)

Question: And the GI50 [28]?
Answer: 13.8 µM (inactive)

Question: What about the GI50 [29] of the same compound?
Answer: 13.8 µM (inactive)

Question: And the GI50 [30]?
Answer: 17.6 µM (inactive)

Question: What about the GI50 [31] of the same compound?
Answer: 2.48 µM (inactive)

Question: What about the GI50 [32] of the same compound?
Answer: 17.5 µM (inactive)

Question: And the GI50 [33]?
Answer: 18.3 µM (inactive)

Question: And the GI50 [34]?
Answer: 14.3 µM (inactive)

Question: What about the GI50 [35] of the same compound?
Answer: 17 µM (inactive)

Question: And the GI50 [36]?
Answer: 20.4 µM (inactive)

Question: What about the GI50 [37] of the same compound?
Answer: 13.5 µM (inactive)

Question: What about the GI50 [38] of the same compound?
Answer: 15.2 µM (inactive)

Question: What about the GI50 [39] of the same compound?
Answer: 23 µM (inactive)

Question: What about the GI50 [40] of the same compound?
Answer: 15.9 µM (inactive)

Question: What about the GI50 [41] of the same compound?
Answer: 13.2 µM

Question: And the GI50 [42]?
Answer: 10.4 µM (inactive)

Question: And the GI50 [43]?
Answer: 14.5 µM (inactive)

Question: And the GI50 [44]?
Answer: 13.7 µM (inactive)

Question: And the GI50 [45]?
Answer: 15.1 µM (inactive)

Question: And the GI50 [46]?
Answer: 14.2 µM (inactive)

Question: And the GI50 [47]?
Answer: 7.66 µM (inactive)

Question: And the GI50 [48]?
Answer: 19.1 µM (inactive)

Question: What about the GI50 [49] of the same compound?
Answer: 14.3 µM (inactive)

Question: What about the GI50 [50] of the same compound?
Answer: 15.8 µM (inactive)

Question: What about the GI50 [51] of the same compound?
Answer: 13.9 µM (inactive)

Question: What about the GI50 [52] of the same compound?
Answer: 5.47 µM (inactive)

Question: What about the GI50 [53] of the same compound?
Answer: 2.81 µM (inactive)

Question: What about the GI50 [54] of the same compound?
Answer: 12.1 µM (inactive)

Question: And the GI50 [55]?
Answer: 17.9 µM (inactive)

Question: And the GI50 [56]?
Answer: 19.2 µM (inactive)

Question: And the GI50 [57]?
Answer: 2.19 µM (inactive)

Question: And the GI50 [58]?
Answer: 11.2 µM (inactive)

Question: What about the GI50 [59] of the same compound?
Answer: 8.34 µM (inactive)
